Several values for one entry are separate records, joined by “and”; a condition that tells them apart may be missing. Equal entries are not always repeated.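 Interpolation was linear, between the two tested concentrations surrounding the appropriate level; five concentrations were tested over 48 hours in 96-well plates. GI50 marks 50% less growth. At the TGI there is no net growth.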

Among the data in PubChem BioAssay (NCI) are GI50 and TGI values, retold here.

Common to all, as to experiment: inhibition of tumour cell growth, NCI panel, 48 h
For assay [1], the system named is M14 melanoma.
Assay [2] deals with OVCAR-4 ovarian.
For assay [3], the system named is HT29 colon.
Assay [4] relates to CAKI-1 renal.
Assay [5] concerns 786-0 renal.
Assay [6] has as its system DU-145 prostate.
Assay [7] deals with A498 renal.
The test system of assay [8] is SK-MEL-5 melanoma.
Assay [9] concerns HCC-2998 colon.
Assay [10] has as its system UACC-257 melanoma.

Consider `CON=C1C[C@]2(C[C@@H]3C[C@@H](C/C=C(\C)C[C@@H](C)/C=C/C=C4\CO[C@@H]5[C@H](O)C(C)=C[C@@H](C(=O)O3)[C@]45O)O2)O[C@H](/C(C)=C/C(C)C)[C@H]1C`, for which the GI50 in assay [1] was 16.1 µM; in assay [2], 16 µM; in [3], 11.1 µM; in assay [4], 7.52 µM; in assay [5] it was 14.2 µM; in assay [6] it was 7.55 µM. In addition, the GI50 in [7] is 10.5 µM; in assay [8], 15.4 µM; in assay [9], 12.1 µM; in assay [10], 16.9 µM. For the same compound, the TGI in [1] came to 33.1 µM; in assay [2] it was 29.7 µM; in assay [3], 25.3 µM; in assay [4] it was 21.6 µM; in assay [5], 28.4 µM; in [6], 20.1 µM. Further, the TGI in assay [7] turned out to be 22.9 µM; in assay [8] it was 29.1 µM; in assay [9] it was 26.9 µM; in assay [10], 32.9 µM.

Turning to `O=C(Nc1ccc(Oc2ccc(NC(=O)Nc3ccccc3Cl)cc2)cc1)Nc1ccccc1Cl`, the GI50 was above 44.6 µM in assay [1]; 2.71 µM in assay [2]; above 21.4 µM in [3]; above 31.9 µM in [4]; 22.6 µM in assay [5]; 4.53 µM in [6]. In addition, the values for the GI50 in assay [7] and in assay [9] were 22.2 µM and 8.47 µM, respectively. In addition, the TGI is above 100 µM in assay [1]; 24.4 µM in assay [2]; above 100 µM in assay [3]; above 88.2 µM in assay [4]; above 69.2 µM in [5]; above 100 µM in assay [6]. Further, the TGI in assay [7] was 64.3 µM; in [8], above 100 µM; in assay [9], above 51.7 µM; in assay [10] it was above 28.2 µM.

For the compound `CC(=O)NC(CS)C(=O)O` (stereo not given), the GI50 in assay [1], in assay [2], in assay [3], in [4], in assay [5] and in assay [6] was above 100 µM in each case. Also, the GI50 in [8], in assay [9] and in assay [10] was above 100 µM each time. Moreover, the TGI in [1] is > 100 µM and 35500 µM; in assay [2], above 100 µM; in assay [3] it was > 100 µM and 86700 µM; in assay [4], > 100 µM and 53400 µM; in [5], > 100 µM and 58100 µM; in [6], above 100 µM. Besides, the TGI was 18500 µM in assay [7]; > 100 µM and 66800 µM in assay [8]; > 100 µM and 50800 µM in assay [9]; above 100 µM in assay [10].

In the case of `CCC(CC)c1cc(N[C@H]2CC[C@H](N)C2)n2nccc2n1`, the GI50 in assay [1] is 1.74 µM; in assay [2] it was 0.978 µM; in assay [3], 0.735 µM; in [4], 0.423 µM; in assay [5], 2.22 µM; in [6] it was 0.708 µM. Also, the GI50 is 2.53 µM in assay [7], 2.21 µM in [8], 1.52 µM in assay [9] and 1.84 µM in assay [10]. For the same compound, the TGI in assay [1] is 5.4 µM; in assay [2], 22.8 µM; in assay [3], above 100 µM; in assay [4] it was above 100 µM; in [5], above 100 µM; in assay [6], above 100 µM. For the same compound, the TGI in assay [7] is above 100 µM; in [8], 11 µM; in assay [9] it was 12 µM; in assay [10], 5.87 µM.

As for `COc1cc(N2CCN(C(C)C)CC2)ccc1Nc1nc(Nc2ccc(F)cc2C(=O)NCC(O)CO)c2cc[nH]c2n1` (stereo not given), the GI50 is 12 µM in assay [1]; above 25 µM in assay [2]; 1.25 µM in assay [3]; above 25 µM in assay [4]; above 23.3 µM in assay [5]; 3.73 µM in assay [6]. The GI50 is 2.5 µM in assay [7], 11.4 µM in assay [8], 7.21 µM in assay [9] and 2.87 µM in assay [10]. For the same compound, the TGI in [1], in assay [2], in assay [3], in assay [4], in [5] and in assay [6] was above 25 µM in each case. The TGI in assay [7], in assay [8], in [9] and in assay [10] was above 25 µM throughout.

In the case of `COc1ccc(CN2C(=O)/C(=C\C(=O)c3ccc(OCCN4CCCC4)cc3)c3ccccc32)cc1`, the GI50 in [1] is 2.25 µM; in [2], 2.18 µM; in assay [4], 11.8 µM; in [5], 1.68 µM; in assay [6], 2.32 µM; in assay [7], 18.1 µM. Also, the GI50 was 16.2 µM in [8], 2.6 µM in assay [9] and 20.2 µM in assay [10]. The TGI in [1] was found to be 5.34 µM; in [2], 5.44 µM; in assay [4] it was 27 µM; in [5], 3.19 µM; in assay [6], 5.65 µM; in assay [7], 38.7 µM. Besides, the TGI came out at 38.8 µM in [8], 6.12 µM in assay [9] and 40.3 µM in assay [10].

Regarding `C=C[C@H]1CN2CCc3c([nH]c4c([C@@H]5CCCN5C)c(O)ccc34)[C@@H]2C[C@@H]1C[C@H]1c2[nH]c3ccccc3c2CCN1C`, the GI50 was 1.25 µM and 0.211 µM in assay [1]; 1.63 µM in assay [5]; 0.142 µM in assay [9]. The TGI was 2.75 µM and 0.436 µM and 2.55 µM in [1]; 3.2 µM in [2]; 3.21 µM and 2.95 µM in assay [3]; 3 µM and 3.23 µM in [4]; 3.15 µM and 2.83 µM in [5]; 2.88 µM and 3.16 µM in assay [6]. Also, the TGI was 3.11 µM and 3.44 µM in [7]; 3.02 µM and 3.04 µM in assay [8]; 0.297 µM in assay [9].

As for `NC(=O)c1cc(I)ccc1NC(=O)/C=C/c1ccccc1Cl`, the GI50 in assay [1] is 0.621 µM; in assay [2], 2.26 µM; in [3], 0.362 µM; in assay [4], 0.405 µM; in assay [5], 0.77 µM; in [6], 0.837 µM. Also, the GI50 was 0.483 µM in [7], 0.366 µM in [8], 0.969 µM in [9] and 38.7 µM in [10]. Further, the TGI is 24.8 µM in [1]; 67.7 µM in [2]; 14.5 µM in assay [3]; 3.78 µM in assay [4]; 20 µM in assay [5]; 5.64 µM in assay [6]. The TGI was 8.01 µM in assay [7], 13 µM in assay [8], 5.61 µM in assay [9] and above 100 µM in assay [10].

With `CC(=O)OC1CC2C(C)(C)CCC[C@]2(C)C2=C1C(O)=C(C(C)C)C(=O)C2=O` (stereo not given in full), the GI50 in assay [1] is 0.442 µM; in [2] it was 0.8 µM; in assay [4] it was 0.567 µM; in assay [5] it was 0.813 µM; in assay [6], 0.867 µM; in assay [7], 0.402 µM. Moreover, the GI50 was 0.174 µM in [8], 0.228 µM in assay [9] and 0.932 µM in assay [10]. In addition, the TGI in assay [1] was 1.83 µM; in assay [2], 7.07 µM; in [4], 2.9 µM; in assay [5], 2.91 µM; in assay [6], 2.28 µM; in assay [7], 1.79 µM. The TGI in [8] was found to be 0.343 µM; in assay [9], 0.546 µM; in [10], 3 µM.

`CCCCOC(=O)/C=C\C(=O)NC(N)=O`: the GI50 was 17.2 µM in [1]; 17.1 µM in [2]; 2.53 µM in [4]; 20.1 µM in assay [5]; 10.1 µM in assay [6]; 29.3 µM in assay [7]. Besides, the GI50 in [8] was 24.3 µM; in assay [9], 19.8 µM; in assay [10] it was 21 µM. In addition, the TGI is 36.6 µM in assay [1]; 43.8 µM in assay [2]; 9.23 µM in [4]; 53.1 µM in assay [5]; above 100 µM in [6]; 78.1 µM in assay [7]. The results for the TGI in assay [8], in [9] and in [10] were 71.4 µM, 35.4 µM and 56.7 µM, respectively.

Consider `CCC1=C[C@@H]2CN(C1)Cc1c([nH]c3ccccc13)[C@@](C(=O)OC)(c1cc3c(cc1OC)N(C)[C@H]1[C@@](O)(C(=O)OC)[C@H](OC(C)=O)[C@]4(CC)C=CCN5CC[C@]31[C@@H]54)C2`, for which the GI50 in assay [1] is 0.0103 µM; in assay [2], below 0.01 µM; in assay [3] it was below 0.01 µM; in assay [5] it was below 0.0205 µM; in assay [6] it was below 0.01 µM; in assay [7], below 0.01 µM. In addition, the GI50 is below 0.01 µM in [8] and below 0.011 µM in assay [9]. Besides, the TGI was 1.01 µM in assay [1]; 21 µM in [2]; above 41.6 µM in assay [3]; 2.52 µM in assay [4]; 13 µM in assay [5]; below 0.01 µM in [6]. The TGI in assay [7] came out at 0.141 µM; in assay [8], 0.119 µM; in [9] it was 1.86 µM.
